Biological target: T1, human DPP-IV (Homo sapiens, UniProt P27487)
T1 construct: made in house; host or cells: Pichia pastoris
Assay: DPP-IV activity assay (fluorometric/colorimetric), IC50 determination
Type: biochemical
Details: natural human DPP-IV from human plasma pool or recombinant human DPP-IV; 37° C., pH 7.8; substrate 50 μM (fluorogenic) or 200 μM (colorimetric)
Protocol: Activity of DPP-IV inhibitors are tested with natural human DPP-IV derived from a human plasma pool or with recombinant human DPP-IV. […] In the calorimetric DPP-IV assay 5 to 10 μl human plasma and in the fluorometric assay 1.0 μl of human plasma in a total assay volume of 100 μl is used as an enzyme source. […] Human DPP-IV is expressed and purified from the culture medium using conventional column chromatography including size exclusion and anion and cation chromatography.
A 20 mM stock solution in 10% DMF/H2O is stored at −20° C. until use.
A 10 mM stock solution in 10% MeOH/H2O is stored at −20° C. until use.
Fluorescence is detected in a Perkin Elmer Luminescence Spectrometer LS 50B at an excitation wavelength of 400 nm and an emission wavelength of 505 nm continuously every 15 seconds for 10 to 30 minutes. Initial rate constants are calculated by best fit linear regression.
Initial rate constants are calculated by best fit linear regression.
DPP-IV activity assays are performed in 96 well plates at 37° C. in a total assay volume of 100 μl. The assay buffer consists of 50 mM Tris/HCl pH 7.8 containing 0.1 mg/ml BSA and 100 mM NaCl. […] Enzyme reactions are started with substrate application followed by immediate mixing.

T1 sequence (P27487 31-766): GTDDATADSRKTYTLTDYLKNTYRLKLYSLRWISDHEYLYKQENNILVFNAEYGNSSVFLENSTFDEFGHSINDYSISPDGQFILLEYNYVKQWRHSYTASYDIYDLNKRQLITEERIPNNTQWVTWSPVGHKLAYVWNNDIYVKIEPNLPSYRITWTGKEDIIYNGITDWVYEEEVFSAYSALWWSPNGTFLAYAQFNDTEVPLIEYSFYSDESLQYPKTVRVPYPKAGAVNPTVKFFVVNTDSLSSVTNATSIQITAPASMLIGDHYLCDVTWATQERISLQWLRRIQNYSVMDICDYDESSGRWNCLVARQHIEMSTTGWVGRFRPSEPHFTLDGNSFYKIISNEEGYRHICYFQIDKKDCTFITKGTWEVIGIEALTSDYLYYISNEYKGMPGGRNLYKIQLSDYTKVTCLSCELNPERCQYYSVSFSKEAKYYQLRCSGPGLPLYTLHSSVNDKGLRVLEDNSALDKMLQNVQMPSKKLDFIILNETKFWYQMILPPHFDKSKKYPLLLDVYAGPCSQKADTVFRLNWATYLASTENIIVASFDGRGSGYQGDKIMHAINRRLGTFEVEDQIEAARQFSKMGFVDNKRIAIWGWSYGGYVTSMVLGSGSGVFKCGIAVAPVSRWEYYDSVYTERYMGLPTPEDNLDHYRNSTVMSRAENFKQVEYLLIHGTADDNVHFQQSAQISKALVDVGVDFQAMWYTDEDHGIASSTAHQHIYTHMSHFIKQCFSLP

IC50	Compound
820 nM	COc1ccc(N2CC[C@@H](N)[C@@H](C(=O)N3CCSC3)C2)cc1OC (racemic) [Example 40, 3 [(3S,4R) and (3R,4S)-4-Amino-1-(3,4-dimethoxy-phenyl)-piperidine-3-yl]-thiazolidin-3-yl-methanone]
290 nM	N[C@@H]1CCN(CCc2ccccn2)C[C@@H]1C(=O)N1CCSC1 [Example 36]

Compound	IC50
NC1CCN(CCc2ccccc2)CC1c1cccc(Cl)c1 (stereo not drawn) [Example 23, 3-(3-Chloro-phenyl)-1-phenethyl-piperidine-4-ylamine]	160 nM

From patent US7683079B2, “4-aminopiperidine derivatives” (Hoffmann-La Roche Inc., priority 2004, dated 2010)
